Measured values reported in US6800653B2, “Epothilone derivatives” (priority 2001, dated 2004).
pEC50, pIC50: −log10 of the molar value.

What was measured:
calf brain tubulin = assay: In vitro tubulin polymerization; format: biochemical; settings: interpolated concentration inducing an initial slope of 0.01 OD/minute; 1.0 mg/ml microtubule protein, 37°; read-out: Tubulin assay EC0.01
Method: In vitro Tubulin Polymerization
Twice cycled (2×) calf brain tubulin was prepared following the procedure of Williams and Lee (see Williams, R. C., Jr., and Lee, J. C. Preparation of tubulin from brain. Methods in Enzymology 85, Pt. D: 376-385, 1982) and stored in liquid nitrogen before use. Quantification of tubulin polymerization potency is accomplished following a modified procedure of Swindell, et al., (see Swindell, C. S., Krauss, N. E., Horwitz, S. B., and Ringel, L. Biologically active taxol analogues with deleted A-ring side chain substituents and variable C-2′ configurations. J. Med. Chem. 34: 1176-1184, 1991). These modifications, in part, result in the expression of tubulin polymerization potency as an effective concentration for any given compound. For this method, different concentrations of compound in polymerization buffer (0.1M MES, 1 mM EGTA, 0.5 mM MgCl2, pH 6.6) are added to tubulin in polymerization buffer at 37° in microcuvette wells of a Beckman (Beckman Instruments) Model DU 7400 UV spectrophotometer. A final microtubule protein concentration of 1.0 mg/ml and compound concentration of generally 2.5, 5.0, and 10 μM are used. Initial slopes of OD change measured every 10 seconds were calculated by the program accompanying the instrument after initial and final times of the linear region encompassing at least 3 time points were manually defined. Under these conditions linear variances were generally <10^−6, slopes ranged from 0.03 to 0.002 absorbance unit/minute, and maximum absorbance was 0.15 absorbance units. Effective concentration (EC0.01) is defined as the interpolated concentration capable of inducing an initial slope of 0.01 OD/minute rate and is calculated using the formula: EC0.01=concentration/slope. EC0.01 values are expressed as the mean with standard deviation obtained from 3 different concentrations. EC0.01 values for the compounds in this invention fall in the range 0.01-1000 μM.

[1] = tested on: HCT-116 human colon carcinoma cells; assay: Cytotoxicity (in vitro) by MTS assay; format: cell-based; settings: HCT-116, 72 hours incubation, MTS, read-out: HTC-116 assay IC50
Method: Cytoxicity was assessed in HCT-116 human colon carcinoma cells by MTS (3-(4,5-dimethylthiazol-2-yl)-5-(3-carboxymethoxyphenyl)-2-(4-sulphenyl)-2H-tetrazolium, inner salt) assay as reported in T. L. Riss, et. al., “Comparison of MTT, XTT, and a novel tetrazolium compound MTS for in vitro proliferation and chemosensitivity assays.,” Mol. Biol. Cell 3 (Suppl.): 184a, 1992. Cells were plated at 4,000 cell/well in 96 well microtiter plates and 24 hours later drugs were added and serial diluted. The cells were incubated at 37° form 72 hours at which time the tetrazolium dye, MTS at 333 μg/ml (final concentration), in combination with the electron coupling agent phenazine methosulfate at 25 μM (final concentration) was added. A dehydrogenase enzyme in live cells reduces the MTS to a form that absorbs light at […] which can be quantitated spectrophotometrically. The greater the absorbance the greater the number of live cells. The results are expressed as an IC50, which is the drug concentration required to inhibit cell proliferation (i.e. absorbance at 450 nm) to 50% of that of untreated control cells.

Compound | pEC50 (calf brain tubulin) | pIC50 [1]
C/C(=C\c1csc(C)n1)C1CC2[C@@H](CCC[C@H](C)[C@H](O)[C@@H](C)C(=O)C(C)(C)[C@@H](O)CC(=O)O1)N2C(=O)c1ccccc1 (relative stereo) [Example 22, 1S-[1R*,3R*(E),7R*,10S,11R*,12R*,16S*]]-17-Phenylcarbonyl-7,11-dihydroxy-8,8,10,12-tetramethyl-3-[1-methyl-2-(2-methyl-4-thiazolyl)ethenyl]-4-oxa-17-azabicyclo[14.1.0]heptadecane-5,9-dione.] | 5.85 | 8.52
C/C(=C\c1csc(C)n1)C1CC2[C@@H](CCC[C@H](C)[C@H](O)[C@@H](C)C(=O)C(C)(C)[C@@H](O)CC(=O)O1)N2C(=O)c1cccs1 (relative stereo) [Example 23, [1S-[1R*,3R*(E),7R*,10S*,11R*,12R*,16S*]]-17-(2-Thienyl)carbonyl-7,11-dihydroxy-8,8,10,12-tetramethyl-3-[1-methyl-2-(2-methyl-4-thiazolyl)ethenyl]-4-oxa-17-azabicyclo[14.1.0]heptadecane-5,9-dione.] | 5.92 | 8.80
CCOC(=O)N1C2CC(/C(C)=C/c3csc(C)n3)OC(=O)C[C@H](O)C(C)(C)C(=O)[C@H](C)[C@@H](O)[C@@H](C)CCC[C@H]21 (relative stereo) [Example 24] | 5.92 | 8.11
